The values that follow come from EP1213583A1, “General method for the covalent immobilisation of indicators in, or onto a support useful for the fabrication of optical sensors” (Innosense S.r.l., priority 2000, dated 2002).

Read-outs that look alike come from different tables or passages of the source.

The nature of this series: pKa determination from absorbance or reflectance spectra vs. pH (four parameter sigmoid fit). The series is classed as physicochemical. As to conditions: 25°C, 0.9% NaCl. The protocol: Preferred embodiments of the Invention are illustrated by the following examples. In all cases pKa values of the indicators were obtained at 25°C and constant ionic strength (0.9% NaCl, with buffers at 0.01 M). Absorbance or reflectance spectra of the dyed substrates were taken using a Shimadzu UV-VIS-NIR spectrophotometer model 3101PC or an Ocean Optics PC1000 optical fibre spectrophotometer. pKa data were obtained by plotting the function λb-λ850nm/λa-λ850nm vs. pH, where λb is the absorbance or reflectance at the absorption maximum of the basic form of the indicator dye, λa is absorbance or reflectance at the absorption maximum of the acid form of the indicator dye and λ850nm is the absorption or reflectance at 850 nm. The plots were analysed by fitting the data with the four parameter sigmoid function, f = (a - d)/[1 + (x/c)^b] + d, where a is the asymptotic maximum, b is the slope, c is the pH at inflection or pKa and d is the asymptotic minimum. The fitting was performed using the Marquardt-Levenberg nonlinear least-squares method.

Where [1] appears, read: immobilised by Mannich reaction in Biodyne B nylon 6,6 membrane.

In turn, `O=[N+]([O-])c1ccc(N=Nc2c(S(=O)(=O)[O-])cc(O)c3ccc(S(=O)(=O)[O-])cc23)c([N+](=O)[O-])c1.[Na+].[Na+]` [nitrazine yellow, 4-(2',4'-dinitrophenylazo)-1-hydroxynaphthalene-3,6-disulfonic acid disodium salt] registered a pKa under setting [1] of 5.41. Besides, the “solution pKa” value (indicator in solution) is listed as 6.60.
For `O=S1(=O)OC(c2ccc(O)cc2)(c2ccc(O)cc2)c2ccccc21` [phenol red], the pKa is 9.64 (immobilised by Mannich reaction in Biodyne A nylon 6,6 membrane); 8.68 under setting [1]; 9.86 (immobilised by Mannich reaction on LoProdyne nylon 6,6 membrane modified with 1,6-diaminohexane); 8 (indicator in solution, read-out: solution pKa).

As a reminder, the pKa is the negative logarithm of the acid dissociation constant.
